Laboratory results taken from ChEMBL document CHEMBL1201862, “PubChem BioAssay data set” (2004).
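Briefly, cells in 96-well plates were exposed to five compound concentrations for 48 h, and endpoints were estimated by linear interpolation. GI50 is the concentration that inhibits growth by half.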 Activity calls are given as the source filed them. No stated cut-off is given here; in the data, active = GI50 up to about 1.1 µM and inactive = higher.

Assays:
Assay in all cases: NCI anticancer screen, dose series, 48 h
A498 = tested on: A498
CCRF-CEM = tested on: CCRF-CEM
COLO 205 = tested on: COLO 205
EKVX = tested on: EKVX
HOP-62 = tested on: HOP-62
HOP-92 = tested on: HOP-92
HT-29 = tested on: HT-29
IGROV-1 = tested on: IGROV-1
K562 = tested on: K562
KM12 = tested on: KM12
LOX IMVI = tested on: LOX IMVI
RPMI-8226 = tested on: RPMI-8226
SNB-75 = tested on: SNB-75
U-251 = tested on: U-251
UACC-257 = tested on: UACC-257
NCI-H522 = tested on: NCI-H522

Measured: GI50

CC(=O)NNc1nc(C)c(C(/C=C/c2ccc(/C=C/C(=N\NC(=O)c3ccncc3)c3sc(NNC(C)=O)nc3C)cc2)=N/NC(=O)c2ccncc2)s1
inactive: A498 > 100 µM | CCRF-CEM > 100 µM | COLO 205 > 100 µM | EKVX > 100 µM | HOP-62 > 100 µM | HOP-92 54 µM | HT-29 > 100 µM | IGROV-1 > 100 µM | K562 > 100 µM | KM12 > 100 µM | LOX IMVI > 100 µM | RPMI-8226 > 100 µM | SNB-75 > 100 µM | U-251 > 100 µM | UACC-257 44.5 µM

O=C(CC1(O)C(=O)Nc2c(Cl)ccc(Cl)c21)c1ccc2ccccc2c1 (stereo unspecified)
inactive: A498 16.3 µM | CCRF-CEM 3.62 µM | COLO 205 14.9 µM | EKVX 15.8 µM | HOP-62 29 µM | HT-29 2.43 µM | IGROV-1 14.3 µM | K562 2.35 µM | KM12 4.69 µM | LOX IMVI 11.2 µM | NCI-H522 2.88 µM | RPMI-8226 6.75 µM | SNB-75 14.2 µM | U-251 4.76 µM | UACC-257 12.2 µM

N#Cc1c(CC(=O)O)cc(=O)n2c1[nH]c1ccccc12
inactive: A498 > 100 µM | COLO 205 > 100 µM | EKVX > 100 µM | HOP-62 > 100 µM | HT-29 > 100 µM | IGROV-1 > 100 µM | K562 > 100 µM | KM12 > 100 µM | LOX IMVI > 100 µM | RPMI-8226 > 100 µM | SNB-75 > 100 µM | U-251 > 100 µM | UACC-257 > 100 µM

CCOC(=O)C(Oc1ccc(OC)c2c1C(=O)CCC2)c1ccccc1 (stereo unspecified)
inactive: A498 > 100 µM | CCRF-CEM 65.5 µM | COLO 205 > 100 µM | EKVX 50.2 µM | HOP-62 > 100 µM | HT-29 53.1 µM | IGROV-1 > 100 µM | K562 49.2 µM | KM12 > 100 µM | LOX IMVI > 100 µM | NCI-H522 94 µM | RPMI-8226 45.9 µM | U-251 > 100 µM | UACC-257 > 100 µM

C/C(CC(=O)Nc1cccc([N+](=O)[O-])c1)=N/NC(N)=S
inactive: CCRF-CEM > 100 µM | COLO 205 > 100 µM | EKVX > 100 µM | HOP-62 > 100 µM | HOP-92 > 100 µM | HT-29 > 100 µM | IGROV-1 > 100 µM | K562 > 100 µM | KM12 > 100 µM | LOX IMVI > 100 µM | NCI-H522 > 100 µM | RPMI-8226 > 100 µM | SNB-75 > 100 µM | U-251 > 100 µM | UACC-257 > 100 µM

Cc1ccc(S(=O)(=O)N/N=C(\c2nc3ccc([N+](=O)[O-])cc3[nH]c2=O)C(O)c2ccc([N+](=O)[O-])cc2)cc1 (stereo unspecified)
inactive: A498 > 100 µM | CCRF-CEM 22.3 µM | COLO 205 > 100 µM | EKVX > 100 µM | HOP-62 51.2 µM | HOP-92 > 100 µM | IGROV-1 > 100 µM | K562 29.2 µM | LOX IMVI 23.8 µM | NCI-H522 10.8 µM | RPMI-8226 21.6 µM | SNB-75 > 100 µM | U-251 > 100 µM | UACC-257 > 100 µM

FC(F)(F)c1ccc2nc(Nc3ccc(Cl)c(Cl)c3)c(-c3ccccc3)nc2c1
inactive: CCRF-CEM 30.5 µM | COLO 205 61.8 µM | EKVX > 100 µM | HOP-62 > 100 µM | HOP-92 46.7 µM | HT-29 26 µM | LOX IMVI 13.8 µM | RPMI-8226 > 100 µM | U-251 7.16 µM | UACC-257 85.5 µM

O=C(NC12CC3CC(CC(C3)C1)C2)C(=O)c1c[nH]c2ccc(Cl)cc12
inactive: CCRF-CEM 46.3 µM | COLO 205 81.8 µM | EKVX > 100 µM | HOP-62 7.13 µM | HOP-92 22.9 µM | HT-29 3.97 µM | IGROV-1 54.1 µM | K562 3.8 µM | KM12 35.6 µM | LOX IMVI 10.1 µM | NCI-H522 85.5 µM | RPMI-8226 19.9 µM | SNB-75 20.9 µM | U-251 56.5 µM | UACC-257 97.1 µM

CN1C(c2ccccc2)CS(=O)(=O)CS1(=O)=O (stereo unspecified)
inactive: A498 > 100 µM | COLO 205 > 100 µM | EKVX > 100 µM | HOP-62 > 100 µM | HT-29 > 100 µM | IGROV-1 > 100 µM | KM12 > 100 µM | LOX IMVI > 100 µM | SNB-75 > 100 µM | U-251 > 100 µM | UACC-257 > 100 µM

O=C1CNC(=O)c2[nH]cnc2N1
inactive: A498 > 100 µM | CCRF-CEM > 100 µM | COLO 205 > 100 µM | EKVX > 100 µM | HT-29 > 100 µM | IGROV-1 > 100 µM | K562 82.6 µM | KM12 > 100 µM | LOX IMVI > 100 µM | RPMI-8226 > 100 µM | SNB-75 > 100 µM | U-251 > 100 µM

CN1C(=O)CC(c2cccc(C3CC(=O)N(C)C3=O)n2)C1=O (stereo unspecified)
inactive: A498 > 100 µM | CCRF-CEM > 100 µM | COLO 205 > 100 µM | EKVX > 100 µM | HOP-62 > 100 µM | HOP-92 > 100 µM | HT-29 > 100 µM | IGROV-1 > 100 µM | K562 > 100 µM | KM12 > 100 µM | LOX IMVI > 100 µM | NCI-H522 > 100 µM | SNB-75 > 100 µM | U-251 > 100 µM | UACC-257 > 100 µM

CC(=O)Nc1[nH]c(=O)[nH]c(=O)c1N(C(C)=O)C(C)=O
inactive: A498 > 100 µM | CCRF-CEM > 100 µM | COLO 205 > 100 µM | EKVX > 100 µM | HOP-92 > 100 µM | HT-29 > 100 µM | IGROV-1 > 100 µM | K562 > 100 µM | KM12 > 100 µM | LOX IMVI > 100 µM | RPMI-8226 > 100 µM | U-251 > 100 µM | UACC-257 > 100 µM

C=C(C)C1CC=C(C)C(O)([C@@]2(O)C[C@H](C(=C)C)CC=C2C)C1 (stereo partly specified)
inactive: A498 23.8 µM | CCRF-CEM 20.1 µM | HOP-62 16.9 µM | HOP-92 12.9 µM | HT-29 17.3 µM | IGROV-1 16.6 µM | K562 22.2 µM | KM12 19.3 µM | LOX IMVI 13.9 µM | NCI-H522 12.6 µM | RPMI-8226 20.5 µM | SNB-75 15.4 µM | U-251 16.7 µM | UACC-257 19.3 µM

CN1N=C2c3ccccc3OC(c3ccccc3)[C@H]2C1c1ccccc1 (stereo partly specified)
inactive: A498 > 100 µM | CCRF-CEM 38.4 µM | COLO 205 > 100 µM | EKVX > 100 µM | HOP-62 95.5 µM | HOP-92 32.7 µM | HT-29 42.1 µM | IGROV-1 90.8 µM | K562 88.1 µM | KM12 > 100 µM | LOX IMVI > 100 µM | NCI-H522 22.5 µM | RPMI-8226 89.7 µM | U-251 > 100 µM | UACC-257 81.1 µM
